One compound from patent US8431540B2, “Modified lysine-mimetic compounds” (Zealand Pharma A/S, priority 2005, dated 2013) can be followed below.

The test system of the assay is Male CD-1 mice. Description: Calcium-induced arrhythmia model (time to AV block after CaCl2 infusion). The conditions noted are these: compound IV 3 min before CaCl2 infusion (100 mg/kg/min), saline control 62-78. The assay is classed as in vivo. As to the method:
Peptides suitable for administration to cardiac cells can be identified in an in vivo model of calcium-induced arrhythmias according to the model of Lynch et al. (1981) J Cardiovasc. Pharmacol. 3: 49-60. Male CD-1 mice are anaesthetized with Ketamine (75 mg/kg) and medetomidine (1 mg/kg) IP. An i.v. cannula is inserted into the tail vein. A lead II ECG signal is recorded continuously by positioning stainless steel ECG electrodes on the right forelimb and […]. The ground electrode is placed on the right hind limb. The signal is amplified and filtered using Gould physiograph components and po-ne-mah data acquisition software. After a 90 sec equilibration period test compound is injected into the tail vein (over 30 seconds). Mice pre-treated with vehicle are tested as control animals. The injection volume is 100 μl/30 g mice in all experiments. Infusion of CaCl2 (30 mg/mL, 0.1 mL/min/30 g mice, 100 mg/kg/min) is started 3 min after IV administration of drug or vehicle (0.9% saline). The time lag to onset of cardiac conduction block is determined as the time from the start of CaCl2 infusion until the first arrhythmic event occurred. The first conduction block is defined as the first RR-interval, larger than or equal to 3 times one RR-interval from the pre-treatment period. The first arrhythmic event occurring is either a second degree AV-block (intermittent failure of the AV conduction characterized by a P-wave without the concomitant QRS complex) or a second degree SA block (prolonged RR-interval and a QRS-complex without a preceding P-wave). Responses are expressed relative to the time until 2nd degree AV-block occurred in vehicle treated mice.
The anti-arrhythmic effect of compounds according to the present teachings was tested in a model of calcium-induced arrhythmias according to the model of Lynch et al., J. Cardiovasc. Pharmacol. (1981), 3: 49-60. Male CD-1 mice were anaesthetized with Ketamine (75 mg/kg) and medetomidine (1 mg/kg) IP. An i.v. cannula was inserted into the tail vein. A lead II ECG signal was recorded continuously by positioning stainless steel ECG electrodes on the right forelimb and […]. The ground electrode was placed on the right hind limb. The signal was amplified and filtered using Gould physiograph components and po-ne-mah data acquisition software. After a 90 sec equilibration period test compound was injected into the tail vein (over 30 seconds). Mice pre-treated with vehicle (0.9% saline) were tested as control animals. The injection volume was 100 μl/30 g mice in all experiments. Infusion of CaCl2 (30 mg/mL, 0.1 mL/min/30 g mice, 100 mg/kg/min) was started 3 min after IV administration of drug or vehicle. The time lag to onset of cardiac conduction block was determined as the time from the start of CaCl2 infusion until the first arrhythmic event occurred. The first conduction block was defined as the first RR-interval, larger/or equal to, 3 times one RR-interval from the pre-treatment period. The first arrhythmic event occurring was either a second degree AV-block (intermittent failure of the AV conduction characterized by a P-wave without the concomitant QRS complex) or a second degree SA block (prolonged RR-interval and a QRS-complex without a preceding P-wave).
Mice pre-treated with vehicle (0.9% saline) were tested on all days as a measure for control level in untreated animal. Injection volume was 100 μL in all experiments. The time lag to onset of arrhythmias was determined as the time from the start of CaCl2 infusion until the first event of conduction block defined as intermittent failure of the SA or AV conduction characterized by delayed P-wave activation (SA block) or by a P-wave without the concomitant QRS complex (AV block). The time lag to onset of AV block is given below in Table 2.

Turning to `NCC(=O)N1C[C@H](NC(=O)c2ccccc2)C[C@H]1C(=O)O` [Compound 2, (2S4R)1-(2-Amino-acetyl)-4-benzoylamino-pyrrolidine-2-carboxylic acid], the “Time to AV block” value amounted to 134.7 s.
